Experimental data: ChEMBL document CHEMBL1201862, “PubChem BioAssay data set” (2004)
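Compound exposure: 48 hours, 5 concentrations, 96-well plates. GI50 is the concentration that inhibits growth by half.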 Activity calls are given as the source filed them. Cut-off read from the data, not from the text of the source: active = GI50 up to about 1.1 µM and inactive = higher.

Columns and labels:
Test in all cases: NCI tumour cell line growth inhibition, 48 h
MOLT-4 = system: MOLT-4
CAKI-1 = system: CAKI-1
HCT-15 = system: HCT-15
RPMI-8226 = system: RPMI-8226
OVCAR-4 = system: OVCAR-4
SF-295 = system: SF-295
SK-MEL-5 = system: SK-MEL-5
U-251 = system: U-251
LOX IMVI = system: LOX IMVI
A549 = system: A549
COLO 205 = system: COLO 205
UACC-257 = system: UACC-257
HT-29 = system: HT-29
SN12C = system: SN12C
OVCAR-8 = system: OVCAR-8
EKVX = system: EKVX
SNB-19 = system: SNB-19
NCI-H23 = system: NCI-H23
UO-31 = system: UO-31
SK-MEL-2 = system: SK-MEL-2

Row | SMILES | GI50 (MOLT-4) | GI50 (CAKI-1) | GI50 (HCT-15) [µM] | GI50 (RPMI-8226) | GI50 (OVCAR-4) | GI50 (SF-295) | GI50 (SK-MEL-5) | GI50 (U-251) | GI50 (LOX IMVI) | GI50 (A549) | GI50 (COLO 205) | GI50 (UACC-257) | GI50 (HT-29) | GI50 (SN12C) | GI50 (OVCAR-8) | GI50 (EKVX) | GI50 (SNB-19) | GI50 (NCI-H23) | GI50 (UO-31) | GI50 (SK-MEL-2)
1 | COc1ccc(C2C(C(=O)O)=C(CO)Oc3cc4c(cc32)OCO4)cc1 (stereo not given) | > 10 µM (inactive) | > 100 µM (inactive) | > 100 | > 100 µM (inactive) | > 100 µM (inactive) | > 100 µM (inactive) | > 100 µM (inactive) | > 100 µM (inactive) | > 100 µM (inactive) | > 100 µM (inactive) | > 100 µM (inactive) | > 100 µM (inactive) | > 100 µM (inactive) | > 100 µM (inactive) | > 100 µM (inactive) | > 100 µM (inactive) | > 100 µM (inactive) | > 100 µM (inactive) | > 100 µM (inactive) | > 100 µM (inactive)
2 | O=c1[nH]nc(NCc2ccccc2)c2nnn(Cc3ccccc3)c12 | > 100 µM (inactive) | > 100 µM (inactive) | > 100 | > 100 µM (inactive) | > 100 µM (inactive) | > 100 µM (inactive) | > 100 µM (inactive) | > 100 µM (inactive) | > 100 µM (inactive) | > 100 µM (inactive) | > 100 µM (inactive) | > 100 µM (inactive) | > 100 µM (inactive) | > 100 µM (inactive) | > 100 µM (inactive) | > 100 µM (inactive) | > 100 µM (inactive) | > 100 µM (inactive) | > 100 µM (inactive) | > 100 µM (inactive)
3 | NC(CCOCCP(=O)(O)O)C(=O)O (stereo not given) | > 100 µM (inactive) | > 100 µM (inactive) | > 100 | > 100 µM (inactive) | > 100 µM (inactive) | > 100 µM (inactive) | > 100 µM (inactive) | > 100 µM (inactive) | > 100 µM (inactive) | > 100 µM (inactive) | > 100 µM (inactive) | > 100 µM (inactive) | > 100 µM (inactive) | > 100 µM (inactive) | > 100 µM (inactive) | > 100 µM (inactive) | > 100 µM (inactive) | > 100 µM (inactive) | > 100 µM (inactive) | > 100 µM (inactive)
4 | Cc1n[nH]c(N)c1C(N)=O | > 100 µM (inactive) | > 100 µM (inactive) | > 100 | > 100 µM (inactive) | > 100 µM (inactive) | > 100 µM (inactive) | > 100 µM (inactive) | > 10 µM (inactive) | > 100 µM (inactive) | > 100 µM (inactive) | > 100 µM (inactive) | > 100 µM (inactive) | > 100 µM (inactive) | > 100 µM (inactive) | > 100 µM (inactive) | > 100 µM (inactive) | > 100 µM (inactive) | > 100 µM (inactive) | > 100 µM (inactive) | > 100 µM (inactive)
5 | O=C1NC(=O)C2(CCc3ccc(N(CCCl)CCCl)cc32)N1 (stereo not given) | 0.931 µM (active) | 3.56 µM (inactive) | 15.1 | 19.7 µM (inactive) | 19.8 µM (inactive) | 7.5 µM (inactive) | 13.5 µM (inactive) | 6.78 µM (inactive) | 8.99 µM (inactive) | 8.36 µM (inactive) | 12.3 µM (inactive) | 16.4 µM (inactive) | 16.4 µM (inactive) | 5.37 µM (inactive) | 14.1 µM (inactive) | 3.15 µM (inactive) | 3.37 µM (inactive) | 6.5 µM (inactive) | 11 µM (inactive) | 21.7 µM (inactive)
6 | CC1C(O)[C@@]2(OC[C@@]34C(=O)CC5(O)[C@H](CCC6Cc7nc8c(nc7C[C@]65C)CC5CC[C@@H]6C7=C[C@H]9O[C@@]%10(O[C@@](C)(CO)C[C@@H]%10O)C(C)[C@@]9(O)[C@]7(C)[C@@H](O)CC6[C@]5(C)C8)C3=CC[C@H]4C2C)OC1(C)C (stereo not given in full) | < 0.000355 µM (active) | 0.0119 µM (active) | 0.00667 | < 0.000355 µM (active) | 0.604 µM (active) | < 0.000355 µM (active) | 0.00667 µM (active) | < 0.000355 µM (active) | < 0.000355 µM (active) | < 0.000355 µM (active) | 0.00532 µM (active) | 0.00524 µM (active) | 0.000622 µM (active) | 0.628 µM (active) | 0.247 µM (active) | 0.00084 µM (active) | 0.00259 µM (active) | 0.00127 µM (active) | 0.0254 µM (active) | 0.000524 µM (active)
